Test results as given in ChEMBL document CHEMBL1154652, “N-(4-(6,7-Disubstituted-quinolin-4-yloxy)-3-fluorophenyl)-2-oxo-3-phenylimidazolidine-1-carboxamides: a novel series of dual c-Met/VEGFR2 receptor tyrosine kinase inhibitors” (Bioorg Med Chem Lett, 2009).
One block for each compound: values may come before it. Activity calls are given as the source filed them. The calls are words filed in the database; no cut-off is given here.

How the values were obtained:
[1] = Inhibition of GST-tagged VEGFR expressed in Sf9 cells
[2] = target: T1, Hepatocyte growth factor receptor (Homo sapiens, UniProt P08581); test: Inhibition of TPR-Met assessed as autophosphorylation
Target sequence in this assay (P08581 25-1390 limits assumed): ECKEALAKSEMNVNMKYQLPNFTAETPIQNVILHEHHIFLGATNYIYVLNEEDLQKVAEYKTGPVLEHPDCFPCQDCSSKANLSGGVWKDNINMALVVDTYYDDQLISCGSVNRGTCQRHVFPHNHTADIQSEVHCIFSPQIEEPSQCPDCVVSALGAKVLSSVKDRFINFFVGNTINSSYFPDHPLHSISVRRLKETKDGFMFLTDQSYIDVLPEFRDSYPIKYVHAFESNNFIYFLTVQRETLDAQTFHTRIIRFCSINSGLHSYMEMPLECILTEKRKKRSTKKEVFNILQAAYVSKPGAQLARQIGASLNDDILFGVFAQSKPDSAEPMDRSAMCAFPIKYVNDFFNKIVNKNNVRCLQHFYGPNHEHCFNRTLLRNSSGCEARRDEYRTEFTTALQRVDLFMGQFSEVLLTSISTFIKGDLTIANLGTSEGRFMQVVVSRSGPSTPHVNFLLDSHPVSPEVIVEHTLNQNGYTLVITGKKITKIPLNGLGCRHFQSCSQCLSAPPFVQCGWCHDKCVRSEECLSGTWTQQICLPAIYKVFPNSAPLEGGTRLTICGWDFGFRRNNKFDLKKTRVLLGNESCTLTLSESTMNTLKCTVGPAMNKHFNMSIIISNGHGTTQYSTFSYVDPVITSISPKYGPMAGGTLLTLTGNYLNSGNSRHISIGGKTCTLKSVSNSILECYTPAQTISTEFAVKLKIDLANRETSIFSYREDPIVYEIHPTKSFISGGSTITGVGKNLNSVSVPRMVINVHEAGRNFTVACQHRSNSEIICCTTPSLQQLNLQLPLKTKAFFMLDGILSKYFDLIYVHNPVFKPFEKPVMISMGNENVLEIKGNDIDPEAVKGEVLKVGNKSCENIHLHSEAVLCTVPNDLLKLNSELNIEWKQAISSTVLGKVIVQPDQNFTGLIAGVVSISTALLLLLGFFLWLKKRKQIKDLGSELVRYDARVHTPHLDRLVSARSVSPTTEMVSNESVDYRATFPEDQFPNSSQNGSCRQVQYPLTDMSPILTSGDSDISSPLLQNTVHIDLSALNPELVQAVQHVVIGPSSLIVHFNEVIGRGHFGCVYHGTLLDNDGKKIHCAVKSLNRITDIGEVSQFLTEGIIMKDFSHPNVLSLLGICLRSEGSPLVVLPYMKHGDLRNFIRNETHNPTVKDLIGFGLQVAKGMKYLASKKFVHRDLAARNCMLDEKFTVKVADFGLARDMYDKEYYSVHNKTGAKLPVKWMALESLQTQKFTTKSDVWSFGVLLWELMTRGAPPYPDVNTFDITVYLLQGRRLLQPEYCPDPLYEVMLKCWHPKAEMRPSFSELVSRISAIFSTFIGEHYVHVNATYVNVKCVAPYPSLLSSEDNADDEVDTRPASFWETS

[3] = target: T1, Hepatocyte growth factor receptor; test: Inhibition of GST-tagged c-Met expressed in Sf9 cells
Target sequence in this assay (P08581 whole entry): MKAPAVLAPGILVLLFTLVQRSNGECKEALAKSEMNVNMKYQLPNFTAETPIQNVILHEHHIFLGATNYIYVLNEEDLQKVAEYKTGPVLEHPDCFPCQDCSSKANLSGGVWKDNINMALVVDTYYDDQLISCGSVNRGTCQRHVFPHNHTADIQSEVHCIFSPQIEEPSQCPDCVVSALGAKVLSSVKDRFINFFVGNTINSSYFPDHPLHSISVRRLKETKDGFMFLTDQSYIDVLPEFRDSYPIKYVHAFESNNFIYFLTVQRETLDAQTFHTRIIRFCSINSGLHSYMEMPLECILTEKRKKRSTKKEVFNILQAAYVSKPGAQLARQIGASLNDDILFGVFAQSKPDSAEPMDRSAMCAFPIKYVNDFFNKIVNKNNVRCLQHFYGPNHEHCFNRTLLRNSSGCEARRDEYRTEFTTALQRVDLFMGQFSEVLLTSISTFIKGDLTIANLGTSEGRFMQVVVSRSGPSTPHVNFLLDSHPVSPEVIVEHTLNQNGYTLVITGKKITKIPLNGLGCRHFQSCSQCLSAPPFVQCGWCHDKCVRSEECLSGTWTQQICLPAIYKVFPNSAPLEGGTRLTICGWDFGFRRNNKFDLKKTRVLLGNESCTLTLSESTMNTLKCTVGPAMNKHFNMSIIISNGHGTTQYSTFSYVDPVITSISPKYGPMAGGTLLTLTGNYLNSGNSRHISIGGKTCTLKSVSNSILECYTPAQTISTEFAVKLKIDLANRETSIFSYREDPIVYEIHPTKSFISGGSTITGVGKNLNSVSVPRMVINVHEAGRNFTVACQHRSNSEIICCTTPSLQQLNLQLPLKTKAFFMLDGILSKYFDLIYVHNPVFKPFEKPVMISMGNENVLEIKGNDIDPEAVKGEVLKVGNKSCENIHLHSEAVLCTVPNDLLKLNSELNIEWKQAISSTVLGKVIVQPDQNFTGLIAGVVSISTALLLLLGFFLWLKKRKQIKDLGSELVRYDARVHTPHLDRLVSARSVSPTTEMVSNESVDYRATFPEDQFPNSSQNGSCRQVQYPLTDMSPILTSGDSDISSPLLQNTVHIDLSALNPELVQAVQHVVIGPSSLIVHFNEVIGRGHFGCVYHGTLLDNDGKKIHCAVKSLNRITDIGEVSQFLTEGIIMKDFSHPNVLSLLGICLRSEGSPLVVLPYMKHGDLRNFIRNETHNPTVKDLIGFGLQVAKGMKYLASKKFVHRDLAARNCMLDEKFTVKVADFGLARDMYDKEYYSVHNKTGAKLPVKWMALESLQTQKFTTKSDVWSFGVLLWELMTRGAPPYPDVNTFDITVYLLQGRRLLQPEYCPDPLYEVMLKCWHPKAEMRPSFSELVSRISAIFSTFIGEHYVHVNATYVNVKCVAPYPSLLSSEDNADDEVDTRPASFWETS

[4] = target: Macrophage-stimulating protein receptor (Homo sapiens) (UniProt Q04912); test: Inhibition of Ron at 100 uM
[5] = target: Platelet-derived growth factor receptor alpha (Homo sapiens) (UniProt P16234); test: Inhibition of PDGFRalpha at 100 uM
[6] = target: Glycogen synthase kinase-3 beta (Homo sapiens) (UniProt P49841); test: Inhibition of GSK3-beta at 100 uM
[7] = Half life in rat; assay type: ADME, organism-based; conditions: in vivo
[8] = target: Inhibitor of nuclear factor kappa-B kinase subunit beta (Homo sapiens) (UniProt O14920); test: Inhibition of IKK-beta at 100 uM
[9] = target: Serine/threonine-protein kinase Chk1 (Homo sapiens) (UniProt O14757); test: Inhibition of CHK1 at 100 uM
[10] = target: Platelet-derived growth factor receptor beta (Homo sapiens) (UniProt P09619); test: Inhibition of PDGFRbeta at 100 uM
[11] = target: Proto-oncogene tyrosine-protein kinase receptor Ret (Homo sapiens) (UniProt P07949); test: Inhibition of Ret at 100 uM
[12] = target: Vascular endothelial growth factor receptor 3 (Homo sapiens) (UniProt P35916); test: Inhibition of VEGFR3 at 100 uM
[13] = target: Mast/stem cell growth factor receptor Kit (Homo sapiens) (UniProt P10721); test: Inhibition of c-kit at 100 uM
[14] = target: High affinity nerve growth factor receptor (Homo sapiens) (UniProt P04629); test: Inhibition of TrkA at 100 uM
[15] = target: Tyrosine-protein kinase JAK2 (Homo sapiens) (UniProt O60674); test: Inhibition of JAK2 at 100 uM
HUVEC [16] = test: Inhibition of VEGF-stimulated proliferation of HUVEC cells; assay type: functional, cell-based; conditions: Homo sapiens
[17] = target: Angiopoietin-1 receptor (Homo sapiens) (UniProt Q02763); test: Inhibition of Tie-2 at 100 uM
[18] = target: Proto-oncogene tyrosine-protein kinase Src (Homo sapiens) (UniProt P12931); test: Inhibition of c-SRC at 100 uM
HUVEC [19] = test: Antiangiogenic activity against HUVEC cell assessed as inhibition of VEGF-dependent tubule formation; assay type: functional, Homo sapiens
[20] = Bioavailability in rat; assay type: ADME, organism-based; conditions: in vivo
[21] = target: Vascular endothelial growth factor receptor 2 (Homo sapiens) (UniProt P35968); test: Inhibition of VEGFR2 at 100 uM
[22] = target: Vascular endothelial growth factor receptor 1 (Homo sapiens) (UniProt P17948); test: Inhibition of VEGFR1 at 100 uM
[23] = target: Serine/threonine-protein kinase Chk2 (Homo sapiens) (UniProt O96017); test: Inhibition of CHK2 at 100 uM
[24] = target: T1, Hepatocyte growth factor receptor; test: Inhibition of Met at 100 uM
Target sequence in this assay (P08581 whole entry): as above

MKN-45 = test: Antiproliferative activity against human MKN45 cells after 72 hrs by MTT assay; assay type: functional, cell-based; conditions: MKN-45, 72 h
[25] = target: Epidermal growth factor receptor (Homo sapiens) (UniProt P00533); test: Inhibition of EGFR at 100 uM
[26] = target: Tyrosine-protein kinase JAK3 (Homo sapiens) (UniProt P52333); test: Inhibition of JAK3 at 100 uM
HCT-116 = test: Antiproliferative activity against human HCT116 cells after 72 hrs by MTT assay; assay type: functional, cell-based; conditions: HCT-116, 72 h
HUVEC [27] = test: Antiangiogenic activity against HUVEC cell assessed as inhibition of tubule formation; assay type: functional, cell-based; conditions: Homo sapiens
HMEC = test: Antiproliferative activity against human HMEC cells after 72 hrs by MTT assay; assay type: functional, cell-based
HOS-TE85 = test: Antitumor activity against human MNNG-HOS cell xenografted mouse assessed as tumor regression at 40 mg/kg, po after 12 days; assay type: functional, organism-based; parameters: dose 40 mg/kg
[28] = target: Fibroblast growth factor receptor 1 (Homo sapiens) (UniProt P11362); test: Inhibition of FGFR1 at 100 uM
[29] = target: Aurora kinase A (Homo sapiens) (UniProt O14965); test: Inhibition of Aurora A at 100 uM
[30] = target: Dual specificity mitogen-activated protein kinase kinase 1 (Homo sapiens) (UniProt Q02750); test: Inhibition of MEK1 at 100 uM
[31] = target: ALK tyrosine kinase receptor (Homo sapiens) (UniProt Q9UM73); test: Inhibition of ALK at 100 uM
[32] = target: RAC-alpha serine/threonine-protein kinase (Homo sapiens) (UniProt P31749); test: Inhibition of PKBalpha at 100 uM
[33] = target: Cyclin-dependent kinase 2/cyclin E (Homo sapiens) (UniProt P24864+P24941+O96020); test: Inhibition of CDK2/cyclin E at 100 uM; assay type: protein-complex assay
[34] = target: RAF proto-oncogene serine/threonine-protein kinase (Homo sapiens) (UniProt P04049); test: Inhibition of c-Raf at 100 uM
[35] = target: Receptor-type tyrosine-protein kinase FLT3 (Homo sapiens) (UniProt P36888); test: Inhibition of Flt3 at 100 uM
[36] = Inhibition of VEGF-induced ERK phosphorylation in HUVEC; assay type: cell-based; conditions: Homo sapiens

Sequence of Mast/stem cell growth factor receptor Kit (Homo sapiens) (P10721 whole entry): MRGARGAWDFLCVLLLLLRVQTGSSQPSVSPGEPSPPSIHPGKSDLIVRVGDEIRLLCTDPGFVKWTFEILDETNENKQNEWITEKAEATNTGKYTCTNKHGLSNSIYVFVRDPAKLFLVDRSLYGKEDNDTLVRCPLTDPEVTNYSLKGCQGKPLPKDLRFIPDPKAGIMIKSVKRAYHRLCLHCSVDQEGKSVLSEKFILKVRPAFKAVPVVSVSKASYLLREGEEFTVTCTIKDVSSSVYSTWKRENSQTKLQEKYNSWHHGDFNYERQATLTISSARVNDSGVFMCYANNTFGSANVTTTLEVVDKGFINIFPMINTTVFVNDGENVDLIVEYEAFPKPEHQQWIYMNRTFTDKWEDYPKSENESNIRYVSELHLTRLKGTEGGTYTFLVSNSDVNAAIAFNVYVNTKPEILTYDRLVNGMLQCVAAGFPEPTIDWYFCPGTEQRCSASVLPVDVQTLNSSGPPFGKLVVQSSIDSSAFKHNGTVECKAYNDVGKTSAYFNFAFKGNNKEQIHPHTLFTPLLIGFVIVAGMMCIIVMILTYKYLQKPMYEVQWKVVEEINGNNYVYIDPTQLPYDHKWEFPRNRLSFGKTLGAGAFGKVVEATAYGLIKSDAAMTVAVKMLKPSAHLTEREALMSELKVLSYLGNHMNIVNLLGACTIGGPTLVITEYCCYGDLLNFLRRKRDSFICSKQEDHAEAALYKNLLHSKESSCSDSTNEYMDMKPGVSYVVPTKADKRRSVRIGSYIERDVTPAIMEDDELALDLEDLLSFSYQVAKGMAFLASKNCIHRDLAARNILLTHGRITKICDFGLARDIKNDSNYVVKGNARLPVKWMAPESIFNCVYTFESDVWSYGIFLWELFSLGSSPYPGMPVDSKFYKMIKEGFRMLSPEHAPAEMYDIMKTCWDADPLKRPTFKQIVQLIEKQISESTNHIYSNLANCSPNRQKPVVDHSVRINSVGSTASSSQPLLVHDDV
Sequence of RAC-alpha serine/threonine-protein kinase (Homo sapiens) (P31749 whole entry): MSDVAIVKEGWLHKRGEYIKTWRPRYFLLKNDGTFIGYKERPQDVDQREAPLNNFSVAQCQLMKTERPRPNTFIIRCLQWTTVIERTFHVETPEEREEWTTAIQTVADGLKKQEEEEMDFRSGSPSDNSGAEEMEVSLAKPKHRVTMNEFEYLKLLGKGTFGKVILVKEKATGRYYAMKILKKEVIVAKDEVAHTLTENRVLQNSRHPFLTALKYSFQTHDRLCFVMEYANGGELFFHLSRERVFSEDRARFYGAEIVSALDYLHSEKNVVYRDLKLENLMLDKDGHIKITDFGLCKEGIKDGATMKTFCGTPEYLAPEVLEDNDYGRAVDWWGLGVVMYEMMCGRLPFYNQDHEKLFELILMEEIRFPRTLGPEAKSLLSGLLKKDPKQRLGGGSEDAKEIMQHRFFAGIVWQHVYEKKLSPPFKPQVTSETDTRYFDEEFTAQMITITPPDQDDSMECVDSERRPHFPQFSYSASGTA
Sequence of Proto-oncogene tyrosine-protein kinase Src (Homo sapiens) (P12931 2-536 limits assumed): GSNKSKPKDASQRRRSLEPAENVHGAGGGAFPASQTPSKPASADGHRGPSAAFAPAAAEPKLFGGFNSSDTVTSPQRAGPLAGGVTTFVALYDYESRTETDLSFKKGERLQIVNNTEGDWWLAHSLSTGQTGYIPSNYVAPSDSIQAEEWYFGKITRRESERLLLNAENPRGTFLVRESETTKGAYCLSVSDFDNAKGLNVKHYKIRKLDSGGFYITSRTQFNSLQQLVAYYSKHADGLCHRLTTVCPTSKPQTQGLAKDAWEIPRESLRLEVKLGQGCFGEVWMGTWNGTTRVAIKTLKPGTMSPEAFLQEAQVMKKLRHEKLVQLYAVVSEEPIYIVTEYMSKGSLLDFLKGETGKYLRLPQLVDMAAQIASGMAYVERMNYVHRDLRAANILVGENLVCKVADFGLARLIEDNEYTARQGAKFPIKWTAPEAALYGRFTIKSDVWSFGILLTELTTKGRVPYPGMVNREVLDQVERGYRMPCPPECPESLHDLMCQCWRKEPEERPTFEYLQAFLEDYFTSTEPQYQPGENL

- IC50 ([2]; read-out: IC50): 3300 nM
- IC50 [1]: > 2000 nM
- IC50 [3]: 600 nM
Compound: COc1cc2ncnc(Nc3ccc(NC(=O)N4CCN(c5ccccc5)C4=O)cc3F)c2cc1OC

- IC50 ([2]; read-out: IC50): 200 nM
- IC50 [1]: 15 nM
- IC50 [3]: 50 nM
Compound: COc1cc2nccc(Oc3ccc(NC(=O)N4CCN(c5cccc(F)c5)C4=O)cc3F)c2cc1OC

- IC50 ([2]; read-out: IC50): 5000 nM
- IC50 [1]: 1300 nM
- IC50 [3]: 60 nM
Compound: COc1cc2nccc(Oc3ccc(NC(=O)N4CCN(c5ccccc5)C4=O)cn3)c2cc1OC

- IC50 ([2]; read-out: IC50): 150 nM
- IC50 [1]: 30 nM
- IC50 [3]: 50 nM
Compound: COc1cc2nccc(Oc3ccc(NC(=O)N4CCN(c5ccc(F)cc5)C4=O)cc3)c2cc1OC

- IC50 ([2]; read-out: IC50): > 10000 nM
- IC50 [1]: 20 nM
- IC50 [3]: 30 nM
Compound: COc1cc2nccc(Oc3ccc(NC(=O)N4CCN(c5ccccc5)C4=O)nc3)c2cc1OC

- IC50 ([2]; read-out: IC50): 240 nM
- IC50 [1]: 30 nM
- IC50 [3]: 50 nM
Compound: COc1cc2nccc(Oc3ccc(NC(=O)N4CCN(c5ccccc5)C4=O)cc3)c2cc1OC

- IC50 ([2]; read-out: IC50): 370 nM
- IC50 [1]: 20 nM
- IC50 [3]: 60 nM
Compound: COc1cc2nccc(Oc3ccc(NC(=O)N4CCN(c5ccccc5F)C4=O)cc3F)c2cc1OC

- IC50 ([2]; read-out: IC50): > 10000 nM
- IC50 [1]: 50 nM
- IC50 [3]: 30 nM
Compound: COc1cc2nccc(Oc3ccc(NC(=O)N4CCN(c5ccccc5)C4=O)c(F)c3)c2cc1OC

- IC50 [2]: Not Active
- IC50 [1]: 1400 nM
- IC50 [3]: 200 nM
Compound: COc1cc2nccc(Nc3ccc(NC(=O)N4CCN(c5ccccc5)C4=O)cc3F)c2cc1OC

- IC50 ([2]; read-out: IC50): 630 nM
- IC50 [1]: 600 nM
- IC50 [3]: 100 nM
Compound: COc1cc2nccc(Oc3ccc(NC(=O)N4CCN(c5ccncc5)C4=O)cc3F)c2cc1OC

- inhibition [4]: 92%
- inhibition [5]: 26%
- inhibition [6]: 0%
- half-life [7]: 4.4 h
- inhibition [8]: 0%
- inhibition [9]: 0%
- inhibition [10]: 6%
- inhibition [11]: 96%
- inhibition [12]: 93%
- inhibition [13]: 12%
- inhibition [14]: 94%
- inhibition [15]: 4%
- inhibition [17]: 23%
- inhibition [18]: 7%
- bioavailability [20]: 22%
- inhibition [21]: 92%
- inhibition [22]: 100%
- IC50 ([2]; read-out: IC50): 90 nM
- inhibition [23]: 1%
- IC50 [1]: 10 nM
- inhibition [24]: 100%
- IC50 (MKN-45): 8 nM
- inhibition [25]: 0%
- inhibition [26]: 6%
- IC50 (HCT-116): 300 nM
- inhibition [28]: 11%
- inhibition [29]: 0%
- inhibition [30]: 0%
- inhibition [31]: 0%
- inhibition [32]: 0%
- inhibition [33]: 0%
- inhibition [34]: 42%
- inhibition [35]: 72%
- IC50 [36]: < 1 nM
Compound: COc1cc2nccc(Oc3ccc(NC(=O)N4CCN(c5ccccc5)C4=O)cc3F)c2cc1OC
- IC50 (HUVEC [16]): 2 nM
- inhibition (INH) (HUVEC [19]): 99.4%
- IC50 (HUVEC [27]): 8 nM
- IC50 (HMEC): > 2500 nM
- Activity (HOS-TE85): Active

- IC50 ([2]; read-out: IC50): > 1000 nM
- IC50 [1]: 30 nM
- IC50 [3]: 40 nM
Compound: COc1cc2ncnc(Oc3ccc(NC(=O)N4CCN(c5ccccc5)C4=O)cc3F)c2cc1OC

- IC50 [2]: Not Active
- IC50 [1]: 5900 nM
- IC50 [3]: 400 nM
Compound: COc1cc2nccc(N(C)c3ccc(NC(=O)N4CCN(c5ccccc5)C4=O)cc3F)c2cc1OC

The remaining lines, values behind:

Compound: Cn1cnc(-c2cc3nccc(Oc4ccc(NC(=S)NC(=O)Cc5ccccc5)cc4F)c3s2)c1
- IC50 [1]: 26 nM

Compound: COc1cc2nccc(Oc3ccc(NC(=O)N4CCN(C5CCCCC5)C4=O)cc3F)c2cc1OC
- IC50 ([2]; read-out: IC50): 860 nM
- IC50 [1]: 210 nM
- IC50 [3]: 110 nM

Compound: COCCOc1cc2nccc(Oc3ccc(NC(=O)N4CCN(c5ccccc5)C4=O)cc3F)c2cc1OCCOC
- IC50 ([2]; read-out: IC50): 20 nM
- IC50 [1]: 40 nM
- IC50 [3]: 60 nM

Compound: COc1cc2c(Oc3ccc(NC(=O)N4CCN(c5ccccc5)C4=O)cc3F)ccnc2cc1OCC1CCNCC1
- IC50 ([2]; read-out: IC50): 80 nM
- IC50 [1]: 20 nM
- IC50 [3]: 40 nM

Compound: COc1cc2ncnc(N(C)c3ccc(NC(=O)N4CCN(c5ccccc5)C4=O)cc3F)c2cc1OC
- IC50 ([2]; read-out: IC50): > 10000 nM
- IC50 [1]: > 2000 nM
- IC50 [3]: 4000 nM

Compound: COc1cc2c(Oc3ccc(NC(=O)N4CCN(c5ccccc5)C4=O)cc3F)ccnc2cc1OCC1CCN(C)CC1
- IC50 ([2]; read-out: IC50): 130 nM
- IC50 [1]: 20 nM
- IC50 [3]: 50 nM

Compound: Cn1cnc(-c2cc3nccc(Oc4ccc(NC(=O)N5CCN(c6ccccc6)C5=O)cc4F)c3s2)c1
- IC50 [1]: 8 nM

Compound: COc1cc2nccc(Oc3ccc(NC(=O)N4CCN(c5ccc(F)cc5)C4=O)cc3F)c2cc1OCCCN1CCOCC1
- IC50 ([2]; read-out: IC50): 30 nM
- IC50 [1]: 120 nM
- IC50 [3]: 40 nM

Compound: COc1cc2nccc(Oc3ccc(NC(=O)N4CCN(c5ccc(F)cc5)C4=O)cc3F)c2cc1OC
- IC50 ([2]; read-out: IC50): 90 nM
- IC50 [1]: 20 nM
- IC50 [3]: 30 nM

Compound: COc1cc2nccc(Oc3ccc(NC(=O)N4CCN(c5ccccc5OC)C4=O)cc3F)c2cc1OC
- IC50 ([2]; read-out: IC50): 150 nM
- IC50 [1]: 30 nM
- IC50 [3]: 50 nM

Compound: COc1cc2nccc(Sc3ccc(NC(=O)N4CCN(c5ccc(F)cc5)C4=O)cc3)c2cc1OC
- IC50 ([2]; read-out: IC50): 80 nM
- IC50 [1]: 100 nM
- IC50 [3]: 40 nM

Compound: COc1cc2c(Oc3ccc(NC(=O)N4CCN(c5ccccc5)C4=O)cc3F)ccnc2cc1OCCCN1CCOCC1
- IC50 ([2]; read-out: IC50): 50 nM
- IC50 [1]: 30 nM
- IC50 [3]: 50 nM

Compound: C=CCN1CCN(C(=O)Nc2ccc(Oc3ccnc4cc(OC)c(OC)cc34)c(F)c2)C1=O
- IC50 [2]: Not Active
- IC50 [1]: 630 nM
- IC50 [3]: 200 nM

Compound: COc1cc2nccc(Oc3ccc(NC(=S)NC(=O)Cc4ccccc4)cc3F)c2cc1OC
- IC50 [1]: 32 nM

Compound: COc1cc2nccc(Oc3ccc(NC(=O)N4CCN(c5ccccn5)C4=O)cc3F)c2cc1OC
- IC50 [2]: Not Active
- IC50 [1]: 230 nM
- IC50 [3]: 40 nM

Compound: COc1cc2nccc(Oc3ccc(NC(=O)N4CCN(N5CCCCC5)C4=O)cc3F)c2cc1OC
- IC50 ([2]; read-out: IC50): 640 nM
- IC50 [1]: 370 nM
- IC50 [3]: 60 nM
